{"source": "paper PMC9019100", "about": "“Development of NanoLuc-targeting protein degraders and a universal reporter system to benchmark tag-targeted degradation platforms” (Nature Communications, 2022)", "key": {"[1]": {"molecular_target": "T1, Fibrillarin-Halo (Rhodococcus rhodochrous, UniProt P0A3G2, A155T/A167V/A172T/A224E/C128F/C176G/D78G/E160K/E257K/H272N/K175M/K195N/L47V/L88M/N227D/P291S/S2A/S58T/T264A/Y273L/Y87F)", "T1 construct": "endogenous in cells; host or cells: 293T, CRISPR/PITCh knock-in at the FBL locus", "T1 sequence (P0A3G2 other isoform, or with tags, fused parts or gaps with the stated changes)": "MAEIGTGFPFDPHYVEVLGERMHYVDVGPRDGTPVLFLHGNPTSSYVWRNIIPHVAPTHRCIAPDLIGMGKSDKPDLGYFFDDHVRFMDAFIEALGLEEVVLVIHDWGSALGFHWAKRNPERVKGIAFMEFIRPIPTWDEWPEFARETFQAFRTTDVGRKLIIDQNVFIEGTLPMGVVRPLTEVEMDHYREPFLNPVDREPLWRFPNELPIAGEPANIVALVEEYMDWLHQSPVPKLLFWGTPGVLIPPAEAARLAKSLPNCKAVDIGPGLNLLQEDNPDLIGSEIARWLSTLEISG", "format": "cell-based", "conditions": "500 nM, 10 h"}, "[2]": {"system": "MLKL^−/− HT29 cells expressing MLKL-Halo", "format": "cell-based", "method": "Cell death was assessed by flow cytometric analysis of PI exclusion. […] Cell death was assessed by flow cytometric analysis of PI exclusion. […] Cell death was assessed by flow cytometric analysis of PI exclusion. e N = 4, f N = 3 independent experiments (symbols), EB represent mean ± SD. g Western from MLKL^−/−CASP8^−/− HT29 cells stably expressing the doxycycline-inducible C-terminal fusion protein, MLKL-NanoLuc (MLKL-NLuc) and constitutively expressing the C-terminal fusion protein caspase-8-FKBP^F36V. […] Cell death was assessed using an IncuCyte and Cytotox-Red uptake. N = 3 independent experiments, one representative experiment shown, EB represent mean ± SD."}, "[3]": {"molecular_target": "T2, Halo-EGFP-NanoLuc-FKBP^F36V (H-E-N-F) fusion protein (UniProt P0A3G2+P62942+Q9GV45, A155T/A167V/A172T/A224E/A31E/A60N/A81I/C128F/C176G/D78G/E160K/E257K/F37V/F95D/H272N/I117V/K175M/K195N/K70R/L47V/L54V/L88M/L99Q/M102K/N193R/N227D/P142E/P291S/Q151K/Q38R/Q45L/S2A/S58T/T264A/V71I/Y165I/Y273L/Y87F)", "format": "cell-based", "design": "expressed in transfected cells; host or cells: immortalized mouse dermal fibroblasts (iMDFs), ubiquitin promoter, constitutive", "conditions": "500 nM; 24 or 48 h after removal"}, "[4]": {"system": "wild-type HT29 cells", "test": "Necroptosis assay (PI exclusion, flow cytometry), wild-type HT29 cells, TNF+SM+IDN", "format": "cell-based, human", "conditions": "sheet S5H", "procedure": "To simulate necroptosis, cells were seeded into 96-well plates ±40 ng/mL doxycycline, to induce construct expression, and treated with 100 ng/mL FLAG-TNF (recombinant human, in-house), 500 nM compound A Smac mimetic (kindly gifted by TetraLogics Pharmaceuticals) and 5 μM IDN-6556 (Cayman) or 10 uM Z-VAD-fmk (Selleckchem) overnight (16–24 h). Degrader compounds or a DMSO vehicle control were added for 5 h, as stated in the Fig. legends. Cells were detached using Trypsin-EDTA (Merck) and resuspended in cell supernatants containing 10 μg/mL propidium iodide (PI). PI exclusion analysis was performed using an LSR II flow cytometer (Becton Dickinson, NJ) with 10,000 single-cell events per sample. Flow cytometry data were analysed using WEASEL version 2.7 software (Frank Battye).\nSupplementary Figure 5. […]\nNC4. Data are representative of N = 3 independent experiments. f-h. HT29 cells were stimulated with DMSO (control) or 500 nM of degrader for 5 hours before the addition of TNF (100 ng/mL) + Smac mimetic (compound A; 500 nM-1 µM) + caspase inhibitor; Emricasan (IDN) (5 µM), for 24 hours. Cell death was assessed by flow cytometric analysis of PI exclusion. N = 3 replicates (symbols) is shown, EB; mean ± SD. Data are representative of N = 3 independent experiments. i. Representative flow cytometry gating strategy. Source data are provided as a Source Data file."}, "[5]": {"system": "MLKL^−/− HT29 cells expressing untagged MLKL", "format": "cell-based"}, "[6]": {"molecular_target": "T2, Halo-EGFP-NanoLuc-FKBP^F36V (H-E-N-F) fusion protein", "format": "cell-based", "conditions": "+dox; for Blank corrected (470-80) luminescence: single well replicates; for Blank corrected Raw Data (470-80): PROTAC 500nM, replicate wells"}}, "note": "“And” between values parts separate entries of the source, which are not always exact repeats. Identical values can stand only once. Like-named read-outs stand apart in the source and are kept apart here.", "data": [{"smiles": "Cc1ncsc1-c1ccc(CNC(=O)[C@@H]2C[C@@H](O)CN2C(=O)[C@@H](NC(=O)C2(C#N)CC2)C(C)(C)C)c(OCCOCCOCCOCCCCCCCl)c1", "note": "[HV2]", "values": [{"measurement": "Dmax (densitometry)", "setting": "[1]", "value": "~ 94.8%"}, {"measurement": "TNF+911+zVAD (PI exclusion)", "setting": "[2]", "value": "75.3 and 62.1 and 72"}, {"measurement": "concentration required to maintain cell survival", "setting": "[2]", "value": 125, "unit": "nM"}, {"measurement": "TNF+911+zVAD (PI exclusion)", "setting": "[2]; MLKL-/- + MLKL HALO, TNF+911+zVAD, degrader 3.9nM, replicate columns", "value": "6.8 and 4 and 7.3"}, {"measurement": "TNF+911+zVAD (PI exclusion)", "setting": "[2]; MLKL-/- + MLKL HALO, TNF+911+zVAD, degrader 7.8nM, replicate columns", "value": "6.9 and 4.5 and 9.3"}, {"measurement": "TNF+911+zVAD (PI exclusion)", "setting": "[2]; MLKL-/- + MLKL HALO, TNF+911+zVAD, degrader 31.25nM, replicate columns", "value": "33 and 22.8 and 23.9"}, {"measurement": "TNF+911+zVAD (PI exclusion)", "setting": "[2]; MLKL-/- + MLKL HALO, TNF+911+zVAD, degrader 62.5nM, replicate columns", "value": "77 and 48.6 and 62.6"}, {"measurement": "TNF+911+zVAD (PI exclusion)", "setting": "[2]; MLKL-/- + MLKL HALO, TNF+911+zVAD, degrader 250nM, replicate columns", "value": "88.6 and 71.9 and 68.6"}, {"measurement": "TNF+911+zVAD (PI exclusion)", "setting": "[2]; MLKL-/- + MLKL HALO, TNF+911+zVAD, degrader 500nM, replicate columns", "value": "85.7 and 70.1 and 67.1"}, {"measurement": "TNF+911+zVAD (PI exclusion)", "setting": "[2]; MLKL-/- + MLKL HALO, TNF+911+zVAD, degrader 1000nM, replicate columns", "value": "77.8 and 71.5 and 66.8"}, {"measurement": "time up to which degradation was maintained, degrader removed at 5 h", "setting": "[3]", "value": "depletion not maintained"}, {"measurement": "viable cells (PI exclusion)", "setting": "[4]; TNF+SM+IDN", "value": "9.6 and 6.1 and 6.3"}, {"measurement": "viable cells (PI exclusion)", "setting": "[4]; Untreated (no death stimulus)", "value": "75.8 and 75.3 and 68.5"}, {"measurement": "TNF+911+zVAD (PI exclusion)", "setting": "[5]", "value": "6.7 and 3.6 and 5.5"}, {"measurement": "TNF+911+zVAD (PI exclusion)", "setting": "[5]; MLKL-/- + MLKL, TNF+911+zVAD, degrader 3.9nM, replicate columns", "value": "7.3 and 3.4 and 6.6"}, {"measurement": "TNF+911+zVAD (PI exclusion)", "setting": "[5]; MLKL-/- + MLKL, TNF+911+zVAD, degrader 7.8nM, replicate columns", "value": "7.3 and 4.5 and 5.7"}, {"measurement": "TNF+911+zVAD (PI exclusion)", "setting": "[5]; MLKL-/- + MLKL, TNF+911+zVAD, degrader 31.25nM, replicate columns", "value": "9.7 and 4.3 and 5.6"}, {"measurement": "TNF+911+zVAD (PI exclusion)", "setting": "[5]; MLKL-/- + MLKL, TNF+911+zVAD, degrader 62.5nM, replicate columns", "value": "7.8 and 3.5 and 5.8"}, {"measurement": "TNF+911+zVAD (PI exclusion)", "setting": "[5]; MLKL-/- + MLKL, TNF+911+zVAD, degrader 250nM, replicate columns", "value": "6.5 and 3.9 and 5.8"}, {"measurement": "TNF+911+zVAD (PI exclusion)", "setting": "[5]; MLKL-/- + MLKL, TNF+911+zVAD, degrader 500nM, replicate columns", "value": "8.6 and 4.3 and 7.2"}, {"measurement": "TNF+911+zVAD (PI exclusion)", "setting": "[5]; MLKL-/- + MLKL, TNF+911+zVAD, degrader 1000nM, replicate columns", "value": "8.3 and 4 and 5.4"}, {"measurement": "Blank corrected (470-80) luminescence", "setting": "[6]; 3.9nM PROTAC", "value": "79470 and 68951 and 78183 and 76420"}, {"measurement": "Blank corrected (470-80) luminescence", "setting": "[6]; 7.8nM PROTAC", "value": "72797 and 64329 and 67516 and 60174"}, {"measurement": "Blank corrected (470-80) luminescence", "setting": "[6]; 31.25nM PROTAC", "value": "46917 and 44939 and 48832 and 45085"}, {"measurement": "Blank corrected (470-80) luminescence", "setting": "[6]; 62.5nM PROTAC", "value": "40512 and 37700 and 38124 and 40329"}, {"measurement": "Blank corrected (470-80) luminescence", "setting": "[6]; 250nM PROTAC", "value": "30717 and 30890 and 31914 and 28801"}, {"measurement": "Blank corrected (470-80) luminescence", "setting": "[6]; 500nM PROTAC, 5h", "value": "69924 and 50626 and 73472 and 59650"}, {"measurement": "Blank corrected (470-80) luminescence", "setting": "[6]; 500nM PROTAC, 8h", "value": "70698 and 62420 and 68286 and 57616"}, {"measurement": "Blank corrected (470-80) luminescence", "setting": "[6]; 500nM PROTAC, 24h", "value": "56615 and 44142 and 53902 and 55861"}, {"measurement": "Blank corrected (470-80) luminescence", "setting": "[6]; 500nM PROTAC", "value": "27860 and 28299 and 29718 and 30521"}, {"measurement": "Blank corrected (470-80) luminescence", "setting": "[6]; 1uM PROTAC", "value": "27861 and 28948 and 28638 and 31530"}, {"measurement": "Blank corrected Raw Data (470-80)", "setting": "[6]; DMSO (control) co-treatment", "value": "30990 and 24165 and 26494 and 23014"}, {"measurement": "Blank corrected Raw Data (470-80)", "setting": "[6]; co-treatment with MG132 (10uM)", "value": "55749 and 70265 and 64908 and 78527"}]}]}
